Reference: PubChem BioAssay (NCI)
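Growth conditions: 96-well plates. Treatment: test compound, 48 hours, 5 concentrations. Analysis: linear interpolation between bracketing concentrations; unreached endpoints set to highest concentration. At the TGI there is no net growth.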

Key:
Test in all cases: growth of human tumour cells (NCI), 48 h
OVCAR-8 ovarian = tested on: OVCAR-8 ovarian
UACC-62 melanoma = tested on: UACC-62 melanoma
CAKI-1 renal = tested on: CAKI-1 renal
OVCAR-4 ovarian = tested on: OVCAR-4 ovarian
OVCAR-3 ovarian = tested on: OVCAR-3 ovarian
SK-MEL-2 melanoma = tested on: SK-MEL-2 melanoma
DU-145 prostate = tested on: DU-145 prostate
786-0 renal = tested on: 786-0 renal
T-47D breast = tested on: T-47D breast
MCF7 breast = tested on: MCF7 breast
NCI-H226 lung = tested on: NCI-H226 lung

Structure (SMILES) | TGI (OVCAR-8 ovarian) | TGI (UACC-62 melanoma) | TGI (CAKI-1 renal) | TGI (OVCAR-4 ovarian) | TGI (OVCAR-3 ovarian) | TGI (SK-MEL-2 melanoma) | TGI (DU-145 prostate) | TGI (786-0 renal) | TGI (T-47D breast) | TGI (MCF7 breast) | TGI (NCI-H226 lung)
CC(C)(C)NC(NC(C)(C)C)=C(/C=C(/Cl)[N+](=O)[O-])[N+](=O)[O-] | > 100 µM | > 100 µM | > 100 µM | > 100 µM | 49.7 µM | > 100 µM | > 100 µM | > 100 µM | > 100 µM | > 100 µM | > 100 µM
O=C1NC(NNc2ccccc2)=N/C1=C\c1ccccc1O | > 100 µM | > 100 µM | > 100 µM | > 100 µM | > 100 µM | > 100 µM | > 100 µM | > 100 µM | > 100 µM | > 100 µM | > 100 µM
O=C1C2CC=CCC2C(=O)N1n1c(Cc2ccc(Cl)cc2)n[nH]c1=O (centres undefined) | > 100 µM | > 100 µM | > 100 µM | > 100 µM | > 100 µM | > 100 µM | > 100 µM | > 100 µM | > 100 µM | > 100 µM | > 100 µM
COC(=O)c1cc2c3c(ccc2[nH]1)N(C(=O)c1cc2cc(OC)c(OC)c(OC)c2[nH]1)CC3CCl (centres undefined) | > 100 µM | > 100 µM | > 100 µM | > 100 µM | > 100 µM | > 100 µM | > 84.6 µM | > 52.6 µM | > 100 µM | > 100 µM | > 75 µM
Nc1ccc(Oc2ccc(C34CC5CC6C3CC3CC4C(C5)C6(c4ccc(Oc5ccc(N)cc5)cc4)C3)cc2)cc1 | > 100 µM | > 87.9 µM | 48 µM | > 100 µM | 29.7 µM | 23.6 µM | > 100 µM | 45.2 µM | > 81.5 µM | > 100 µM | 71.4 µM
O=c1cc(N2CCOCC2)[nH]c(=O)n1-c1ccc(F)cc1 | > 100 µM | > 100 µM | > 100 µM | > 100 µM | > 100 µM | > 100 µM | > 100 µM | > 100 µM | > 100 µM | > 100 µM | > 100 µM
COc1cc(C(=O)n2c3ccc(Br)cc3c3nc4ccccc4nc32)cc(OC)c1OC | > 100 µM | > 100 µM | > 100 µM | > 100 µM | > 100 µM | > 100 µM | > 100 µM | > 100 µM | > 100 µM | > 100 µM | > 100 µM
OCCCCCCCCCCCOc1ccc(C2OCC3(CO2)COC(c2ccc(OCCCCCCCCCCCO)cc2)OC3)cc1 (centres undefined) | > 50 µM | > 50 µM | > 50 µM | > 50 µM | > 50 µM | > 50 µM | > 50 µM | > 50 µM | > 50 µM | > 50 µM | > 50 µM
CN(Cc1cnc2nc(N)nc(N)c2n1)c1ccc(C(=O)NC(CCC(=O)NCCC(P(=O)(O)O)P(=O)(O)O)C(=O)O)cc1 (centres undefined) | > 100 µM | > 100 µM | > 100 µM | > 100 µM | > 100 µM | > 100 µM | > 100 µM | > 100 µM | > 100 µM | > 100 µM | > 100 µM
C1C2CC3CC1CC(Nc1nc(NC45CC6CC(CC(C6)C4)C5)nc(NC45CC6CC(CC(C6)C4)C5)n1)(C2)C3 | > 65.5 µM | > 100 µM | > 100 µM | > 100 µM | > 100 µM | > 100 µM | > 100 µM | > 44.1 µM | > 100 µM | > 100 µM | > 100 µM
O=C(O)CC1NC(/C(=C/c2ccccc2)NC(=O)c2ccccc2)OC1=O (centres undefined) | 66.5 µM | 57.9 µM | > 100 µM | > 100 µM | 51.2 µM | 66.6 µM | > 100 µM | > 100 µM | > 100 µM | > 100 µM | 98.6 µM
CS(=O)(=O)O[C@H]1CN2C[C@@H](O)[C@@H](O)[C@H]2[C@H]1CO | > 100 µM | > 100 µM | > 100 µM | > 100 µM | > 100 µM | > 100 µM | > 100 µM | > 100 µM | > 100 µM | > 100 µM | > 100 µM
CN1CCN(C(=O)CCNC(=O)Cc2ccc(C(=O)c3ccccc3)cc2)CC1 | > 100 µM | > 100 µM | > 100 µM | > 100 µM | > 100 µM | > 100 µM | > 100 µM | > 100 µM | > 100 µM | > 100 µM | > 100 µM
CCCC[C@@H]1CCN2C[C@@H](O)[C@@H](O)[C@@H]2[C@H]1O | > 100 µM | > 100 µM | > 100 µM | > 100 µM | > 100 µM | > 100 µM | > 100 µM | > 100 µM | > 100 µM | > 100 µM | > 100 µM
COc1cc(/C=C2\C[C@H]3[C@@H]4CCc5cc(O)ccc5[C@H]4CC[C@]3(C)C2=O)cc(OC)c1OC | 30.1 µM | 52.2 µM | 26.6 µM | 72.8 µM | 26.9 µM | 31.9 µM | 17.5 µM | 57.7 µM | 38.5 µM | > 100 µM | 32 µM
CN(C(=O)C1=CCC2(CC1)OCCO2)c1ccccc1OS(=O)(=O)C(F)(F)F | > 100 µM | > 100 µM | > 100 µM | > 100 µM | > 100 µM | > 100 µM | > 100 µM | > 100 µM | > 100 µM | > 100 µM | 85.4 µM
C[N+](CCCl)(CCCl)Cc1cccc2cccc([N+](=O)[O-])c12 | > 100 µM | > 100 µM | > 100 µM | > 100 µM | > 100 µM | > 100 µM | > 100 µM | > 100 µM | > 100 µM | > 100 µM | > 100 µM
Nc1ccc2c(c1)N(C(=O)c1cc3cc(NC(=O)c4cc5ccccc5o4)ccc3[nH]1)CC2CCl (centres undefined) | 1.45 µM | 0.794 µM | 12.9 µM | 3.71 µM | 0.56 µM | 0.398 µM | 2.08 µM | > 37.9 µM | 0.683 µM | 2.38 µM | 0.329 µM
OC1(C(F)(F)F)OCCN=C1C(F)(F)F (centres undefined) | > 100 µM | > 100 µM | > 100 µM | > 100 µM | > 100 µM | > 100 µM | > 100 µM | > 100 µM | > 100 µM | > 100 µM | > 100 µM
Cc1cc(C)nc(NC(=O)c2ccc(Br)s2)c1 | > 100 µM | > 100 µM | > 100 µM | > 100 µM | > 100 µM | > 100 µM | > 100 µM | > 100 µM | > 100 µM | > 100 µM | > 100 µM
CCOC(=O)c1c(NC(=O)c2cccs2)sc2c1CCCC2 | > 100 µM | > 100 µM | > 100 µM | > 100 µM | > 100 µM | > 100 µM | > 100 µM | > 100 µM | > 100 µM | > 100 µM | > 100 µM
C/C(=N\NC(=S)N1CCCCC1)c1nc2ncccc2[nH]1 | 34.8 µM | 69.7 µM | > 100 µM | > 100 µM | > 100 µM | > 100 µM | 86.3 µM | > 100 µM | 42.4 µM | 14 µM | 26.7 µM
COC(=O)C1=C(C)NC2=C(C(=O)c3ccccc32)C1c1cn(-c2ccccc2)nc1-c1ccccc1 (centres undefined) | > 100 µM | > 100 µM | > 100 µM | > 100 µM | > 100 µM | > 100 µM | > 100 µM | > 100 µM | > 100 µM | > 100 µM | > 100 µM
CC(=O)N(C)c1ccc(Nc2cc(C)[nH]c3ccc4ncnc4c23)cc1 | 21.5 µM | 31.8 µM | 23.8 µM | 34 µM | 27.5 µM | 23.2 µM | 22.4 µM | 18.8 µM | 39.6 µM | 26 µM | 19.5 µM
CC1=CC(C)C/C=C/C2C3OC3(C)C(C)C3C(Cc4c[nH]c5ccccc45)NC(=O)C23C(=O)C=CC(=O)C1O (centres undefined) | 54.3 µM | 29.1 µM | 2.94 µM | 24.3 µM | 12.1 µM | 34.6 µM | 27.6 µM | 10.8 µM | 3.76 µM | 27.1 µM | 32 µM
COC(=O)CCC1=CCC2(SC)C(=O)Nc3cccc1c32 (centres undefined) | > 100 µM | > 100 µM | > 100 µM | > 100 µM | > 100 µM | > 100 µM | > 100 µM | > 100 µM | > 100 µM | > 100 µM | > 100 µM
CC1(C)CC(=O)c2[nH]c3ccccc3c2CC(=O)NCCc2cn1cn2 | > 100 µM | > 100 µM | > 100 µM | > 100 µM | > 100 µM | > 100 µM | > 100 µM | > 100 µM | > 100 µM | > 100 µM | > 100 µM
CCCn1c2ccccc2c2ccc3c(c21)C(=O)C=CC3=O | > 6.96 µM | > 10 µM | 6.1 µM | 4.07 µM | 4.88 µM | > 10 µM | > 10 µM | 3.27 µM | 5.44 µM | 4.59 µM | > 10 µM
CC(=O)Nc1ccc(N2C(=O)/C(=C\c3cccc(Oc4ccccc4)c3)S(=O)(=O)C2c2ccccc2)cc1 (centres undefined) | > 100 µM | > 100 µM | > 100 µM | > 100 µM | > 100 µM | > 100 µM | > 100 µM | > 100 µM | > 100 µM | > 100 µM | > 100 µM
